In PubChem BioAssay AID1963862 (Molecular Pharmacology Branch, DTP, NCI, 2024):

System: KRAS patient-derived spheroids with HUVEC/MSC, viability
Test: Anticancer human tumor 941728-121-R-J1-PDC patient-derived lung adenocarcinoma cell line growth inhibition [KRAS2]
Settings: for IC50: curve of first compound; for viability, T/C: stronger effect = lower value
In short: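 KRAS-mutant tumor cells were grown as spheroids with HUVEC endothelial cells and human MSCs as stroma. Targeted agents were tested alone and with KRAS pathway inhibitors. Doses started at or near clinical Cmax, or 10 microM, descending half-log.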

[1] = second compound 0.1 µM, first compound 0.0316 µM
[2] = second compound 0.1 µM, first compound 0.1 µM
[3] = second compound 0.1 µM, first compound 0.316 µM
[4] = second compound 0.1 µM, first compound 1 µM
[5] = second compound 0.1 µM, first compound 3.16 µM
[6] = second compound 0.1 µM, first compound 10 µM
[7] = second compound 0.316 µM, first compound 0.0316 µM
[8] = second compound 0.316 µM, first compound 0.1 µM
[9] = second compound 0.316 µM, first compound 0.316 µM
[10] = second compound 0.316 µM, first compound 1 µM
[11] = second compound 0.316 µM, first compound 3.16 µM
[12] = second compound 0.316 µM, first compound 10 µM
[13] = second compound 1 µM, first compound 0.0316 µM
[14] = second compound 1 µM, first compound 0.1 µM
[15] = second compound 1 µM, first compound 0.316 µM
[16] = second compound 1 µM, first compound 1 µM
[17] = second compound 1 µM, first compound 3.16 µM
[18] = second compound 1 µM, first compound 10 µM
[19] = second compound 3.16 µM, first compound 0.0316 µM
[20] = second compound 3.16 µM, first compound 0.1 µM
[21] = second compound 3.16 µM, first compound 0.316 µM
[22] = second compound 3.16 µM, first compound 1 µM
[23] = second compound 3.16 µM, first compound 3.16 µM
[24] = second compound 3.16 µM, first compound 10 µM
[25] = second compound 10 µM, first compound 0.0316 µM
[26] = second compound 10 µM, first compound 0.1 µM
[27] = second compound 10 µM, first compound 0.316 µM
[28] = second compound 10 µM, first compound 1 µM
[29] = second compound 10 µM, first compound 3.16 µM
[30] = second compound 10 µM, first compound 10 µM
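Also: spheroids exposed to agents for seven days before readout.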

| SMILES | IC50 (second compound 0.1 µM) [nM] | IC50 (second compound 0.316 µM) [nM] | IC50 (second compound 1 µM) [nM] | IC50 (second compound 3.16 µM) [nM] | viability, T/C [1] [%] | viability, T/C [2] [%] | viability, T/C [3] [%] | viability, T/C [4] [%] | viability, T/C [5] [%] | viability, T/C [7] [%] | viability, T/C [8] [%] | viability, T/C [9] [%] | viability, T/C [10] [%] | viability, T/C [11] [%] | viability, T/C [13] [%] | viability, T/C [14] [%] | viability, T/C [15] [%] | viability, T/C [16] [%] | viability, T/C [17] [%] | viability, T/C [19] [%] | further results |
| --- | --- | --- | --- | --- | --- | --- | --- | --- | --- | --- | --- | --- | --- | --- | --- | --- | --- | --- | --- | --- | --- |
| O=C(c1cc(Cc2n[nH]c(=O)c3ccccc23)ccc1F)N1CCN(C(=O)C2CC2)CC1 + C=CC(=O)N1CCN(c2nc(OCC3CCCN3C)nc3c2CCN(c2cccc4cccc(C)c24)C3)CC1CC#N | < 31.6 | < 31.6 | < 31.6 | < 31.6 | 32.3 | 33.3 | 30.5 | 32.5 | 30.6 | 36.1 | 33.7 | 33.3 | 33.7 | 33.9 | 32.6 | 36.2 | 35.2 | 32.8 | 32 | 0.38 | IC50 (second compound 0.0316 µM): < 31.6 nM; viability, T/C (second compound 0.0316 µM, first compound 0.0316 µM): 36.5%; viability, T/C (second compound 0.0316 µM, first compound 0.1 µM): 36.5%; viability, T/C (second compound 0.0316 µM, first compound 0.316 µM): 59.6%; viability, T/C (second compound 0.0316 µM, first compound 1 µM): 29.1%; viability, T/C (second compound 0.0316 µM, first compound 3.16 µM): 26.9%; viability, T/C (second compound 0.0316 µM, first compound 10 µM): 36.2%; viability, T/C [6]: 35.4%; viability, T/C [12]: 34.2%; viability, T/C [18]: 35.7%; viability, T/C [20]: 4.45%; viability, T/C [21]: 1.13%; viability, T/C [22]: 0.34%; viability, T/C [23]: 0.38%; viability, T/C [24]: 0.53% |
| CCNC(=O)CC1N=C(c2ccc(Cl)cc2)c2cc(OC)ccc2-n2c(C)nnc21 (stereo not given) + CNCc1ccccc1-c1csc(C(C)Nc2nc(C)nc3cc(OC)c(OC)cc23)c1 | 64.4 | < 31.6 | < 31.6 | < 31.6 | 53.8 | 48.9 | 40.2 | 35.5 | 34.1 | 38.7 | 37.1 | 27.8 | 25.8 | 20.6 | 30 | 27.2 | 20.7 | 17.4 | 12.9 | 1.35 | IC50 (second compound 10 µM): < 31.6 nM; viability, T/C [6]: 28.6%; viability, T/C [12]: 19.8%; viability, T/C [18]: 11%; viability, T/C [20]: 2.8%; viability, T/C [21]: 0.83%; viability, T/C [22]: 1.53%; viability, T/C [23]: 1.46%; viability, T/C [24]: 1.72%; viability, T/C [25]: 0.51%; viability, T/C [26]: 0.89%; viability, T/C [27]: 0.25%; viability, T/C [28]: 0.86%; viability, T/C [29]: 0.86%; viability, T/C [30]: 0.53% |
| CC1COCCN1c1cc(-c2ccnn2C)c2ccnc(-c3ccn[nH]3)c2n1 (stereo not given) + CNCc1ccccc1-c1csc(C(C)Nc2nc(C)nc3cc(OC)c(OC)cc23)c1 | 23.7 | < 10 | < 10 | < 10 | 43.3 | 39.4 | 31.7 | 28.2 | 26.8 | 37.1 | 29 | 22.8 | 22.9 | 22.6 | 29.4 | 18.8 | 19 | 14 | 11.4 | 1.18 | IC50 (second compound 10 µM): < 10 nM; viability, T/C (second compound 0.1 µM, first compound 0.01 µM): 63.1%; viability, T/C (second compound 0.316 µM, first compound 0.01 µM): 41.5%; viability, T/C (second compound 1 µM, first compound 0.01 µM): 24.9%; viability, T/C (second compound 3.16 µM, first compound 0.01 µM): 1.36%; viability, T/C [20]: 1.37%; viability, T/C [21]: 0.47%; viability, T/C [22]: 0.45%; viability, T/C [23]: 0.62%; viability, T/C (second compound 10 µM, first compound 0.01 µM): 0.73%; viability, T/C [25]: 0.11%; viability, T/C [26]: 0.25%; viability, T/C [27]: 0.12%; viability, T/C [28]: 0.14%; viability, T/C [29]: 0.17% |
| CC1(C)CCC(CN2CCN(c3ccc(C(=O)NS(=O)(=O)c4ccc(NCC5CCOCC5)c([N+](=O)[O-])c4)c(Oc4cnc5[nH]ccc5c4)c3)CC2)=C(c2ccc(Cl)cc2)C1 + COc1cc2nc(C)nc(NC(C)c3cc(N)cc(C(F)(F)F)c3)c2cc1OC1CCOC1 | < 31.6 | < 31.6 | < 31.6 | < 31.6 | 38.8 | 40.6 | 36.4 | 33.9 | 6.79 | 36.7 | 33 | 38.5 | 31.8 | 7.02 | 35.2 | 46.4 | 34.4 | 32.2 | 7.71 | 39.2 | IC50 (second compound 10 µM): < 31.6 nM; viability, T/C [6]: 4.58%; viability, T/C [12]: 3.43%; viability, T/C [18]: 1.61%; viability, T/C [20]: 34%; viability, T/C [21]: 32.2%; viability, T/C [22]: 29.6%; viability, T/C [23]: 5.76%; viability, T/C [24]: 3.49%; viability, T/C [25]: 19.6%; viability, T/C [26]: 19.7%; viability, T/C [27]: 17.5%; viability, T/C [28]: 7.37%; viability, T/C [29]: 1.44%; viability, T/C [30]: 0.52% |
